Target: T1, human TLR8 (Homo sapiens, UniProt Q9NR97)
T1 sequence (Q9NR97 27-1041): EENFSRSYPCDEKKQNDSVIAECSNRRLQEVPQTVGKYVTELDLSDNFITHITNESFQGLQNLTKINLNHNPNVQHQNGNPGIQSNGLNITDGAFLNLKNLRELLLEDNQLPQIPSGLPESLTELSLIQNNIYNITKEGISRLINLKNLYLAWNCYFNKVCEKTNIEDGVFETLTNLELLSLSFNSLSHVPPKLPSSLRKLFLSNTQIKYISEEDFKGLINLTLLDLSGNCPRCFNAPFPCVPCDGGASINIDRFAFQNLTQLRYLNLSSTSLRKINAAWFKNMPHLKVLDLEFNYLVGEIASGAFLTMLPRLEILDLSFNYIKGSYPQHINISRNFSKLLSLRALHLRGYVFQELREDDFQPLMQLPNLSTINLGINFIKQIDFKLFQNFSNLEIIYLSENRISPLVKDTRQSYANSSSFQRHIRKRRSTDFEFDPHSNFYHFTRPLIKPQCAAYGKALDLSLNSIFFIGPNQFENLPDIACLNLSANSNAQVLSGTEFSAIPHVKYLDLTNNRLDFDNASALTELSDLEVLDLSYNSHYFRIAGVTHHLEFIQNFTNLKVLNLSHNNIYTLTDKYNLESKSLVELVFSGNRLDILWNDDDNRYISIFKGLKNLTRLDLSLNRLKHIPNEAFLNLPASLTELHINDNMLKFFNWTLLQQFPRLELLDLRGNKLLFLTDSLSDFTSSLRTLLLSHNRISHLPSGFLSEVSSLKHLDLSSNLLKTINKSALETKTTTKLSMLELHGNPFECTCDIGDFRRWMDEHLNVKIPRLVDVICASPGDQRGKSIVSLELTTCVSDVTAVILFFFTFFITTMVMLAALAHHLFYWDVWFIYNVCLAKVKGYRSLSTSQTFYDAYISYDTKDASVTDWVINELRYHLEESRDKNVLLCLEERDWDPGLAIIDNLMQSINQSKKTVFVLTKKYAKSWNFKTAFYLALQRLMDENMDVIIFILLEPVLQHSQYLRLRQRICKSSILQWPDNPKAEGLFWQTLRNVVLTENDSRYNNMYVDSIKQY
Experiment: HEK293-Blue-hTLR-8 cells assay (SEAP reporter, R848 stimulation)
Assay type: cell-based
Conditions: HEK293-Blue-hTLR8 cells, R848 ligand, 20 hrs; read-out: HEK/hTLR8 IC50
Method: The following tests were carried out in order to determine the activity of the compounds of formula (I), (Ia) or (Ib) in HEK293-Blue-hTLR-7/8/9 cells assay.
HEK293-Blue-hTLR-8 Cells Assay:
A stable HEK293-Blue-hTLR-8 cell line was purchased from InvivoGen (Cat. #: hkb-htlr8, San Diego, California, USA). These cells were originally designed for studying the stimulation of human TLR8 by monitoring the activation of NF-κB. A SEAP (secreted embryonic alkaline phosphatase) reporter gene was placed under the control of the IFN-β minimal promoter fused to five NF-κB and AP-1-binding sites. The SEAP was induced by activating NF-κB and AP-1 via stimulating HEK-Blue hTLR8 cells with TLR8 ligands. Therefore the reporter expression was declined by TLR8 antagonist under the stimulation of a ligand, such as R848, for incubation of 20 hrs. The cell culture supernatant SEAP reporter activity was determined using QUANTI-Blue™ kit (Cat. #: rep-qb1, Invivogen, San Diego, Ca., USA) at a wavelength of 640 nm, a detection medium that turns purple or blue in the presence of alkaline phosphatase.
HEK293-Blue-hTLR8 cells were incubated at a density of 250,000˜450,000 cells/mL in a volume of 170 μL in a 96-well plate in Dulbecco's Modified Eagle's medium (DMEM) containing 4.5 g/L glucose, 50 U/mL penicillin, […], […], 2 mM L-glutamine, 10% (v/v) heat-inactivated fetal bovine serum with addition of 20 μL test compound in a serial dilution in the presence of final DMSO at 1% and 10 μL of 60 uM R848 in above DMEM, perform incubation under 37° C. in a CO2 incubator for 20 hrs. Then 20 μL of the supernatant from each well was incubated with 180 μL Quanti-blue substrate solution at 37° C. for 2 hrs and the absorbance was read at 620-655 nm using a spectrophotometer. The signaling pathway that TLR8 activation leads to downstream NF-κB activation has been widely accepted, and therefore similar reporter assay was modified for evaluating TLR8 antagonist.

Compound	IC50 [nM]
C[C@@H]1CN(c2ccc(C#N)c3ncccc23)C[C@@H]2CCN(Cc3ncc(N4CCNCC4)cc3F)CCN21 [Example 23, 5-[(4R,10aS)-8-[(3-fluoro-5-piperazin-1-yl-2-pyridyl)methyl]-4-methyl-1,3,4,6,7,9,10,10a-octahydropyrazino[1,2-d][1,4]diazepin-2-yl]quinoline-8-carbonitrile]	8.3
CO[C@@H]1CN(c2cnc(CN3CC[C@H]4CN(c5ccc(C#N)n6nccc56)C[C@@H](C)N4CC3)c(F)c2)C[C@H]1N [Example 26, 4-[(4R,10aS)-8-[[5-[(3R,4R)-3-amino-4-methoxy-pyrrolidin-1-yl]-3-fluoro-2-pyridyl]methyl]-4-methyl-1,3,4,6,7,9,10,10a-octahydropyrazino[1,2-d][1,4]diazepin-2-yl]pyrazolo[1,5-a]pyridine-7-carbonitrile]	85.7
CO[C@@H]1CN(c2cnc(CN3CC[C@H]4CN(c5ccc(C#N)n6ncc(F)c56)C[C@@H](C)N4CC3)c(F)c2)C[C@H]1N [Example 27, 4-[(4R,10aS)-8-[[5-[(3R,4R)-3-amino-4-methoxy-pyrrolidin-1-yl]-3-fluoro-2-pyridyl]methyl]-4-methyl-1,3,4,6,7,9,10,10a-octahydropyrazino[1,2-d][1,4]diazepin-2-yl]-3-fluoro-pyrazolo[1,5-a]pyridine-7-carbonitrile]	10.1
C[C@@H]1CN(c2cc(=O)n(C)c3ncccc23)C[C@@H]2CCN(Cc3ccc4c(c3)CNCC4)CCN21 [Example 28, 4-[(4R,10aS)-4-methyl-8-(1,2,3,4-tetrahydroisoquinolin-7-ylmethyl)-1,3,4,6,7,9,10,10a-octahydropyrazino[1,2-d][1,4]diazepin-2-yl]-1-methyl-1,8-naphthyridin-2-one]	51.1

More lines, now with the values ahead:

IC50 [nM]	Compound
11	C[C@@H]1CN(c2ccc(C#N)c3ncccc23)C[C@@H]2CCN(Cc3ccc(N4C[C@@H](N)[C@@H](F)C4)cn3)CCN21 [Example 20, 5-[(4R,10aS)-8-[[5-[(3R,4S)-3-amino-4-fluoro-pyrrolidin-1-yl]-2-pyridyl]methyl]-4-methyl-1,3,4,6,7,9,10,10a-octahydropyrazino[1,2-d][1,4]diazepin-2-yl]quinoline-8-carbonitrile]
86.9	C[C@@H]1CN(c2ccc(C#N)c3ncccc23)C[C@@H]2CCN(Cc3ccc(N4CCOC[C@H](N)C4)cn3)CCN21 [Example 21, 5-[(4R,10aS)-8-[[5-[(6R)-6-amino-1,4-oxazepan-4-yl]-2-pyridyl]methyl]-4-methyl-1,3,4,6,7,9,10,10a-octahydropyrazino[1,2-d][1,4]diazepin-2-yl]quinoline-8-carbonitrile]
14.1	CO[C@@H]1CN(c2ccc(CN3CC[C@H]4CN(c5ccc(C#N)c6ncccc56)C[C@@H](C)N4CC3)nc2)C[C@H]1N [Example 22, 5-[(4R,10aS)-8-[[5-[(3R,4R)-3-amino-4-methoxy-pyrrolidin-1-yl]-2-pyridyl]methyl]-4-methyl-1,3,4,6,7,9,10,10a-octahydropyrazino[1,2-d][1,4]diazepin-2-yl]quinoline-8-carbonitrile]
7.9	CO[C@@H]1CN(c2cnc(CN3CC[C@H]4CN(c5ccc(C#N)c6ncccc56)C[C@@H](C)N4CC3)c(F)c2)C[C@H]1N [Example 24, 5-[(4R,10aS)-8-[[5-[(3R,4R)-3-amino-4-methoxy-pyrrolidin-1-yl]-3-fluoro-2-pyridyl]methyl]-4-methyl-1,3,4,6,7,9,10,10a-octahydropyrazino[1,2-d][1,4]diazepin-2-yl]quinoline-8-carbonitrile]

From patent US12421240B2, “Hydropyrazino[1,2-d][1,4]diazepine compounds for the treatment of autoimmune disease” (Hoffmann-La Roche Inc., priority 2019, dated 2025)
